Data on 2 substances can be found in patent US8790665B2, “Serum protein-based detection of random sequence polymer compositions” (Ares Trading SA, priority 2009, dated 2014).

For data set [1], the system named is Ig fraction of rabbit polyserum. Description: ELISA with Ig fraction of rabbit polyserum. Format: binding. The following applies: FIG. 13. On the technique in general: ELISA stands for enzyme-linked immunosorbent assay.
For the next data set, the target named is HLA-DR2 (DRB1*1501) (Homo sapiens, UniProt P01903+P01911). The following applies: peptide-specific manner; cited from earlier work.
The target of a further data set is HLA-DR4 (DRB1*0401) (Homo sapiens, UniProt P01903+P01911, A100K/A169T/F76Y/I96L/K127E/L162R/M171V/N62H/P40V/Q125Y/R42H/S133A/S149N/S66Y/V115G/V209L/W38E). The settings on record: peptide-specific manner; cited from earlier work.
For data set [2] the following is noted: several hours after subcutaneous administration; various species, including man; cited from earlier work.
The next data set has as its system RAW264.7. Description: Bioassay: CCL22 release by monocyte cell line RAW264.7. Format: cell-based. The settings on record: RAW264.7 cells exposed to copolymer; FIGS. 10, 15. The procedure:
Following synthesis of RSP compositions of different lengths, for example by solid phase synthesis or by solution phase synthesis, the individual lots or batches made by the same manufacturing process, and individual batches of mixtures manufactured by different processes are tested and compared for variation using bioassays such as the release of CCL22 by the monocyte cell line RAW264.7, by ex vivo proliferation assays, and by measuring the binding of serum proteins to peptides in the RSP composition, it is possible to determine subsets of peptides or even individual peptides that are present in any given process or lot. Processes and lots of RSP compositions will be compared to determine whether the same subsets of peptides and/or types of peptides are consistently represented across the different processes and lots.

A further data set deals with CCL22. Briefly: Acute release of CCL22 (MDC) in serum or plasma after YEAK administration in mice. The following applies: FIG. 5. Format: in vivo.
For the next data set, the target named is HLA-DR1 (DRB1*0101) (Homo sapiens, UniProt P01903+P01911, A100R/D57E/F55L/F60I/F76Y/I96L/L162R/M171V/P40L/Q125E/R42F/V115G/Y59C). The following applies: peptide-specific manner; cited from earlier work.
Another data set has as its system serum proteins. Description: Identification of serum proteins bound to PI-2301 or Cop-1 (ELISA / CNBr-Sepharose capture, LC-MS/MS). The settings on record: for serum proteins identified as bound: LC-MS/MS of tryptic digest, samples from Example 1 or 2; for binding to the serum proteins listed in Table C: normal human serum, direct ELISA. Format: binding, human. The text has this: As a non-limiting example of the above described identification, PI-2301 or Cop-1 may be used in a direct ELISA assay (see Materials and Methods) to identify serum proteins that bind to the RSP composition comprising YFAK or YEAK peptides. […] It has been observed that YEAK and YFAK peptides have different binding specificities; conversely, serum proteins can be said to bind YEAK and YFAK peptides with different specificities. Tables D and E list serum proteins which associate with HDL and LDL, respectively. Any serum proteins may bind to the RSP composition described herein by varying affinities and selectivities.
An uncoated ELISA plate was blocked with PBS/0.1% Tween 20 for 2 hours at room temperature. PI-2301 or Cop-1 samples were serially diluted in PBS/5% normal human serum and added to the blocked and washed wells of the ELISA plate. The PI-2301 or Cop-1 in normal human serum was bound to the plate and unbound PI-2301 or Cop-1 was removed by washing the plate with PBS/0.05% Tween 20. Protein-A-purified anti-rabbit anti-PI-2301 or anti-rabbit anti-Cop-1, diluted to a suitable concentration based on the titer, was added for 1 hr at RT. After another wash step to remove the unbound rabbit anti-2301 or rabbit anti-Cop-1 antibodies, a secondary antibody, a goat anti-rabbit IgG-HRP (horse radish peroxidase conjugated antibody to rabbit IgG) was added to the well. After washing away any unbound secondary antibody, substrate for HRP was added to the wells and incubated for 15 minutes, which yielded a blue color that turns yellow when stop solution is added, the intensity of which color correlates with the amount of total PI-2301 or Cop-1 in the well. The optical density was measured at 450 nm with a ELISA plate reader and a titer curve was generated for each set of the serum samples spiked with PI-2301 and Cop-1, respectively. The limit of serum PI-2301 or serum Cop-1 detection is defined as the concentration which results in a A450 nm absorption which is 3 times above background. […]
Immobilized RSP compositions were prepared by reacting the peptides with CNBr-activated Sepharose®, a pre-activated large pore chromatography medium used for immobilizing ligands (proteins, peptides, nucleic acids) containing primary amines using the cyanogens bromide method. […] After pH neutralization, the absorbance at 280 nm of the eluted fractions was read to identify fractions containing the ligands. […]
Samples containing PI-2301 binding proteins or Cop-1 binding proteins were obtained by the method of Example 1 or Example 2. These samples were then enzymatically digested and analyzed by liquid chromatography tandem mass spectrometry (LC-MS/MS) for the purpose of identify the proteins which bind PI-2301 or Cop-1. […]

A short description of data set [3]: YEAK in the serum of mice dosed IV or SC, detected by anti-YEAK ELISA. Format: in vivo. The following applies: FIG. 4.
Data set [4] can be described thus: Serum concentration / exposure of PI-2301 compared with Cop-1. The following applies: in vivo. From the text: Certain RSP compositions persist much longer in the serum and other biological fluids than other mixtures. For example, a preparation of YFAK, PI-2301, is found at 10 times the serum concentration in comparison to Cop-1 administered at the same initial weight-by-volume concentration (US App. Pub. 2009-0275496). In some instances, the administered peptides are sequestered by or bound to some in vivo component in situ, the result of which is longer half-life in that environment, with or without enhancement in bioavailability. In certain embodiment, the environment is blood plasma or lymph. In an alternative embodiment, the environment is spinal or cerebral fluid. In yet other embodiments, the environment is any tissue or organ locale to which peptides from RSP compositions are delivered.
Without wishing to be bound by theory, mechanistically, binding of peptides within RSP compositions, (e.g. PI-2301 and Cop-1) to the serum proteins such as lipoproteins found associated with HDL and LDL might facilitate their capture by monocytes through receptors such as SR-BI or ABCA1. This binding may induce activation of monocytes and their differentiation into anti-inflammatory cells. PI-2301 and Cop-1 differ in binding to serum proteins (see FIG. 3). […]

The subject of data set [5] is preclinical models of multiple sclerosis and Crohn's disease. Description: Efficacy in preclinical models of multiple sclerosis and Crohn's disease. Format: in vivo. From the text: Without wishing to be bound by theory, mechanistically, binding of peptides within RSP compositions, (e.g. PI-2301 and Cop-1) to the serum proteins such as lipoproteins found associated with HDL and LDL might facilitate their capture by monocytes through receptors such as SR-BI or ABCA1. This binding may induce activation of monocytes and their differentiation into anti-inflammatory cells. PI-2301 and Cop-1 differ in binding to serum proteins (see FIG. 3). One reason for the difference is that Cop-1 and generic variants of glatiramer acetates are made by solution phase peptide synthesis, thus significant variations in composition may be observed from lot to lot. In contrast, PI-2301 is manufactured by solid phase synthesis. […] Thus, the great majority of the PI-2301 52-mer peptides in the mixture is likely to be functional. Cop-1 has a much broader molecular weight distribution, making it likely that some species of the mixture, such as small peptide species, in the mixture are ineffective.

The conditions of data set [6]: administered at the same initial weight-by-volume concentration; cited from earlier work.

“Also recorded” adds a separate entry of the source.

Regarding glatiramer acetate [Cop-1], the “recognition by Ig fraction of rabbit polyserum” value in data set [1] is recorded as “interacts strongly”. Moreover, the “binding affinity to purified HLA-DR2 (DRB1*1501)” value on HLA-DR2 (DRB1*1501) is “binds with high affinity”. In addition, the “binding affinity to purified HLA-DR4 (DRB1*0401)” value on HLA-DR4 (DRB1*0401) is reported as “binds with high affinity”. Moreover, the detection in serum result in [2] is reported as “can be detected”. In the data set on RAW264.7, the CCL22 release entry is “released CCL22 in a concentration dependent manner”. Besides, the “relation between SC dose and observed maximum CCL22 plasma concentration” value in the data set with CCL22 is recorded as “linear correlation”. Besides, the “binding affinity to purified HLA-DR1 (DRB1*0101)” value on HLA-DR1 (DRB1*0101) was “binds with high affinity”. In the data set on serum proteins, the “serum proteins identified as bound” value was “several lipoproteins from the HDL and LDL complexes; also recorded: complement proteins such as C3 and C4A”; the “binding to the serum proteins listed in Table C” value is reported as “experimentally shown to bind”. Also, the maximum serum concentration in data set [3] (mice dosed IV with 4 mg/kg or SC with 21 mg/kg, route for this value not stated) came to 1800 ng/mL. For the same substance, in data set [3] (post dosing, mice IV 4 mg/kg or SC 21 mg/kg), the “time of maximum serum concentration” value is listed as “around 15 min”.
Turning to plovamer [PI-2301], the detection in serum result in data set [2] is reported as “can be detected”. The “serum exposure compared with Cop-1” value in data set [4] is “greater serum exposure”. Moreover, the “efficacy (potency) compared with Cop-1” value in data set [5] is listed as “more potent than Cop-1”. For the same substance, in the data set with serum proteins, the “serum proteins identified as bound” value is “several lipoproteins from the HDL and LDL complexes”; the “binding to the serum proteins listed in Table C” value is “experimentally shown to bind”. Further, the “serum concentration in comparison to Cop-1” value in data set [6] is given as 10 times.
